Results reported in paper PMC4504079, “Andrographolide sodium bisulphite-induced inactivation of urease: inhibitory potency, kinetics and mechanism” (BMC Complementary and Alternative Medicine, 2015).

What was measured:
jack bean urease (JBU) = jack bean urease (JBU) (Canavalia ensiformis, UniProt P07374); assay: urease activity assay (modified Berthelot ammonia determination), slow-binding progress curves; type: biochemical
[1] = target: T1, Helicobacter pylori urease (HPU) (Helicobacter pylori, UniProt P69996); assay: urease activity assay on desalted crude bacterial extract (modified Berthelot); type: biochemical
T1 construct: gene ureB; crude urease solution from H. pylori ATCC 43504
T1 sequence (P69996 whole entry): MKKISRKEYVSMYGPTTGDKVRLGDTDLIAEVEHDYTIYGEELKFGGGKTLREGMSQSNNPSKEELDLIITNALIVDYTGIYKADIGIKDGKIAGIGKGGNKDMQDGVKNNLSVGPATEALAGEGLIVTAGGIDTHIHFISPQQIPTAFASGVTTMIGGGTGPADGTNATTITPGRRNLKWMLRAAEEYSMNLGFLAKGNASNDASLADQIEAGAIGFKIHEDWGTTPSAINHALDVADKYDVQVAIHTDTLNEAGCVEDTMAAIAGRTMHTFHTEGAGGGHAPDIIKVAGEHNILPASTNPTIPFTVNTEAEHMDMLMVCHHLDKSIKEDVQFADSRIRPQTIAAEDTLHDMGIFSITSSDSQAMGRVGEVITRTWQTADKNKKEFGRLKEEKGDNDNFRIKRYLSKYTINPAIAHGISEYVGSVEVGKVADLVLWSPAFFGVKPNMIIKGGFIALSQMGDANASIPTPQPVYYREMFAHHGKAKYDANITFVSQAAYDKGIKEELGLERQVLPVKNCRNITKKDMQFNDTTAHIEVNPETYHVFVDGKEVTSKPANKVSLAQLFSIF

Chain of jack bean urease (JBU) (P07374 whole entry): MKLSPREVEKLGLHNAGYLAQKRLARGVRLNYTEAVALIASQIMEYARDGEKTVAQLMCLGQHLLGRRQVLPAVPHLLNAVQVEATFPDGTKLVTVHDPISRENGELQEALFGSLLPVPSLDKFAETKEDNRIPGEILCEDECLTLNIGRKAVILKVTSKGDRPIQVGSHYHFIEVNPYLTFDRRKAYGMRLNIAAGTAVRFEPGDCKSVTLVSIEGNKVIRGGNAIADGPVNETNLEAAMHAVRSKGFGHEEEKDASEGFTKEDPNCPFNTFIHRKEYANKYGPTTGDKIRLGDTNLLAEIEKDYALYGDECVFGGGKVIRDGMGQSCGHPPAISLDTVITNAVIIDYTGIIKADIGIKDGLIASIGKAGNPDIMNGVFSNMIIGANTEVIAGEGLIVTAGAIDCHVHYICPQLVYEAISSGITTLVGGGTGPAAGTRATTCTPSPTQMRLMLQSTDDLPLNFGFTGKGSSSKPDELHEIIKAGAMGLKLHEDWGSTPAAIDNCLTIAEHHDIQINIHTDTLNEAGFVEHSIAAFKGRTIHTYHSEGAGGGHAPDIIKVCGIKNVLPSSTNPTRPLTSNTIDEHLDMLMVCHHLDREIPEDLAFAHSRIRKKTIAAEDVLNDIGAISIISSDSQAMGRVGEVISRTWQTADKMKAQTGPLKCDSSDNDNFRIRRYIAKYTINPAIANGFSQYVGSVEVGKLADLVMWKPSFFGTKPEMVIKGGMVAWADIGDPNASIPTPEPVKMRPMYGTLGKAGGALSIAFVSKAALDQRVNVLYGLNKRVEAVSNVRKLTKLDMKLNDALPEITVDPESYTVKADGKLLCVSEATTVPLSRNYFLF

Work on `C=C1CC[C@@H]2[C@](C)(CO)[C@H](O)CC[C@@]2(C)[C@@H]1CC(C1=CCOC1=O)S(=O)(=O)O` (some centres unmarked) [ASB, Andrographolide sodium bisulphite] yielded an IC50 (jack bean urease (JBU)) of 3.28 ± 0.13 mM and an IC50 [1] of 3.17 ± 0.34 mM.
